# Assay results published in patent US20230233584A1, “EXTENDED RELEASE 5-HT RECEPTOR AGONISTS FOR NEUROLOGICAL CONDITIONS” (Diamond Therapeutics Inc., priority 2020, published 2023).
# Tested on: Long Evans rats
# Experiment: Progressive ratio (PR) test, Study B
# Assay type: in vivo
# Conditions: 0.025 mg/kg, rats
# Procedure: General: Experiments were conducted to test psilocybin doses in the range of 0.01-0.2 mg/kg psilocybin administered S.C. across progressive ratio (PR) and 5-choice serial reaction time task (5CSRTT) to examine the effect of psilocybin on endophenotypes of motivation and attention. In each study, a population of out-bred Long Evans rats was first tested as a group for response to the PR and 5CSRTT. Each group was then divided into subgroups by tertiles according to performance, and then exposed to various dose levels immediately prior to re-testing at various psilocybin dose levels.
# The PR test is used to answer how willing the test subject is to work for food (i.e. test of motivation). A single 45 mg food pellet (i.e. reinforcer) is made available to the test animal based on lever press response. To obtain each successive pellet, the animal must make increasingly more lever presses. Typically, a progression of 2, 4, 6, 9, 12, 15, 20, 25, 32, 40, 50, 62, 77, 95, 118, etc. is used, derived from the equation:
# ratio=[5×e^(0.2×reinforcer #)−5]
# At some point, the animal gives up as the motor demands to obtain a single pellet are not deemed worthwhile (i.e. animal reaches “break point” defined as animal's failure to earn a food pellet in 20 minutes).
# Study B: Based on Study 1 outcome, a follow-up PR study was conducted utilizing a larger cohort size (72 rats total), and incorporating a lower dose of psilocybin (0.025 mg/kg SC) (FIG. 2C and FIG. 2D). […] Separation of rats based on the lowest average break point recorded over the 7 days prior to testing identified a “low responder” subgroup of N=24 rats. […] There was no treatment effect on session duration (F3,69=2.4; P=0.07, NS), although there was trend for this to be increased at the 0.1 mg/kg dose (Veh: 15.1+2.0 min; Psilo 0.1 mg/kg: 18.7+2.5 min).
compound,measurement,value
"CCN(CC)C(=O)[C@@H]1C=C2c3cccc4[nH]cc(c34)C[C@H]2N(C)C1 [LSD, D-lysergic acid diethylamide]",effect in PR test at lowest dose tested,no significant effect
